Entries after “also recorded” stand apart in the source; their conditions may differ.

Results on five compounds are retold here after patent US9951149B2, “Reversible heparin molecules and methods of making and using the same” (The University of North Carolina at Chapel Hill, priority 2013, dated 2018).

A short description of data set [1]: Clearance of LMWHs in vivo: retention of 35S-labeled material in mouse liver. As to conditions: BALB/c mice, lateral tail vein injection, 12 min (FIG. 4A). Here is the method:
The mouse experiment was approved by the University of Nebraska Animal Care and Use Committees. Five to six week old BALB/c mice (Harlan Laboratories, Indianapolis, Ind., United States of America) weighing 18-20 g were anesthetized in a small 34° C. chamber with a flow of oxygen containing 4% isoflurane. Once the mice were unconscious, they were individually placed on a heated pad with a nose cone fitted over their snout with a constant flow of oxygen containing 2% isoflurane. A specific amount of ^35S-labeled LMWH Compound, LMWH, or UFH was injected via the lateral tail vein using a 27G1/2 needle mounted on a 1 ml syringe. The labeled material was allowed to circulate in the blood for 12 min while the mouse lay unconscious. The abdominal cavity was exposed by incision and the liver was collected, washed, and weighed. Approximately 100 mg from each of the lobes was homogenized in 0.75 ml 1% NP-40 and then centrifuged at 12,000×g for 2 min to pellet insoluble material. The supernatant was then added to 4 ml scintillation fluid, mixed for 30 min by rocking and then radioactivity was assessed by a Beckman Coulter LS6500 scintillation counter. The data is presented as the percentage of CPM in total liver divided by total CPM injected±standard error of 3-5 mice per ligand.

Data set [2] has as its target T1, Stabilin-2 receptor (190-HARE) (Homo sapiens, UniProt Q8WWQ8).
T1 construct: The Stabilin-2 cell line expressing the 190-HARE; expressed in transfected cells
T1 sequence (Q8WWQ8 1136-2551 limits assumed): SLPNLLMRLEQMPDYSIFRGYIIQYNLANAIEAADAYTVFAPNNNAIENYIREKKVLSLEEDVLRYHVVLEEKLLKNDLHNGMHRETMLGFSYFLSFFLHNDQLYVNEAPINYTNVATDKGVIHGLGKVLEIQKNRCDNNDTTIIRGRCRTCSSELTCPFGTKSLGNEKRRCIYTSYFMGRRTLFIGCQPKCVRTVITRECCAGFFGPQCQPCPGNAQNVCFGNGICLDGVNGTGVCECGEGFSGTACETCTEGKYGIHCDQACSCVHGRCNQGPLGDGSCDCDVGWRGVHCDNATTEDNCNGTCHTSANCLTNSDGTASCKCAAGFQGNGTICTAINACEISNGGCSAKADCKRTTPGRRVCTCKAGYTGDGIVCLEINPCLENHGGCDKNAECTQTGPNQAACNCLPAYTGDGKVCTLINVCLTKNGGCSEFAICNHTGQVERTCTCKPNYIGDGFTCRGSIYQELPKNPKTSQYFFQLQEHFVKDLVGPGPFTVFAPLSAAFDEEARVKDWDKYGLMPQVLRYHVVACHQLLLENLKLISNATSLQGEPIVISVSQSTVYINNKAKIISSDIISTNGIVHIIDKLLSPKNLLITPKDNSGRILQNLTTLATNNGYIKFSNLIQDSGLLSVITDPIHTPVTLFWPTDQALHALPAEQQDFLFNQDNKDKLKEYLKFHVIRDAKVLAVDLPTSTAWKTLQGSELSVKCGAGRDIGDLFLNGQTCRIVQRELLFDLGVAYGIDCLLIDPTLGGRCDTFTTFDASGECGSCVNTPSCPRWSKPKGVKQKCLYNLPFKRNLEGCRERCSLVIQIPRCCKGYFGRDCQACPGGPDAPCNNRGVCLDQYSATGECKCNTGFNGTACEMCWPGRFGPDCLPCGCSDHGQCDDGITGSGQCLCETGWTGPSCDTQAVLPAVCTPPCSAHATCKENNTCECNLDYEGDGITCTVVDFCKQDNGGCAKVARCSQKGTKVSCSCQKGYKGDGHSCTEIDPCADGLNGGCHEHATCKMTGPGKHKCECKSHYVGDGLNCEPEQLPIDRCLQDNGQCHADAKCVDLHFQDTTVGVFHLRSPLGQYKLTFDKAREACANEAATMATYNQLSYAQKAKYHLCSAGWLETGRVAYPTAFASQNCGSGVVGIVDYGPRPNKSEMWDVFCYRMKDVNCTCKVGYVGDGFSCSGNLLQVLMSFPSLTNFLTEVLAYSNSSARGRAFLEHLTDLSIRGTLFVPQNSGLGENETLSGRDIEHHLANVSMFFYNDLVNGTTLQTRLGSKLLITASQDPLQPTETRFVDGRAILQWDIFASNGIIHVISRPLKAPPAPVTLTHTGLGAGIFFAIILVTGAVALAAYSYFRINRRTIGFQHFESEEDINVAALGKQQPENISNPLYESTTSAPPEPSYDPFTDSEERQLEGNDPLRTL
Briefly: Stabilin-2 mediated endocytosis of 35S-labeled LMWHs in Flp-In-293 cells. The data set is classed as cell-based. As to conditions: Flp-In-293 cells expressing 190-HARE, 3 h at 37° C. (FIG. 5). Here is the method: FIG. 5 is a histogram of endocytosis of ^35S-labeled synthetic LMWHs in Flp-In-293 cells. The cells were stably transfected with the plasmid expressing the Stabilin-2 receptor (190-HARE). The internalization value was calculated by subtracting the nonspecific internalization background from the total internalization of a ^35S-labeled Compound. The background was determined by mixing the ^35S-labeled Compound with at least 100-fold molecular excess of unlabeled UFH.
The Stabilin-2 cell line expressing the 190-HARE (Harris et al., J. Biol. Chem. 279, 36201-36209, 2004) was grown to 90% confluency with DMEM+8% FBS+50 μgml^−1 Hygromycin B in 24-well plates for at least 2 days prior to the experiment in a standard tissue culture incubator. Endocytosis medium (DMEM+0.05% BSA) containing a known amount of ^35S-labeled LMWH Compound, LOVENOX®, or UFH was added to each well in triplicate and allowed to incubate with the cells for 3 h at 37° C., 5% CO2. Receptor specific internalization was assessed by incubating each radiolabeled ligand with at least a 100-fold excess of unlabeled UFH. The cells were then washed with Hank's Balanced Salt Solution (1.26 mM CaCl2, 5.33 mM KCl, 0.44 mM KH2PO4, 0.5 mM MgCl2-6H2O, 0.41 mM MgSO4-7H2O, 138 mM NaCl, 4.0 mM NaHCO3, […], 0.3 mM phenol red, pH 7.2) three-times, and cells were lysed in 0.4 ml 0.3 N NaOH. 0.35 ml of the cell lysate mixture was mixed with 4 ml scintillation fluid (Perkin Elmer, Waltham, Mass., United States of America) and radioactivity was measured by a Beckman Coulter LS6500 scintillation counter. The remaining 0.05 ml cell lysate was used to determine protein levels using the Bradford reagent (Sigma-Aldrich). The data was calculated as the percentage of specific CPM internalized of the total amount added per μg cell lysate protein±standard deviation.

Consider `O=C(O)C1OC(OC2C(COS(=O)(=O)O)OC(OC3C(C(=O)O)OC(OC4C(COS(=O)(=O)O)OC(OC5C(C(=O)O)OC(Oc6ccc([N+](=O)[O-])cc6)C(O)C5O)C(NS(=O)(=O)O)C4O)C(OS(=O)(=O)O)C3O)C(NS(=O)(=O)O)C2OS(=O)(=O)O)C(O)C(O)C1OC1OC(COS(=O)(=O)O)C(O)C(O)C1NS(=O)(=O)O` (stereo not shown) [Compound 1], for which, in data set [1], the “retention in the liver” value was “very low level of retention in the liver”. Further, the “endocytosis mediated by Stabilin-2 (internalization)” value (“endocytosis mediated” for short) in data set [2] is “very low internalization”.
`O=C(O)C1OC(OC2C(COS(=O)(=O)O)OC(OC3C(C(=O)O)OC(OC4C(COS(=O)(=O)O)OC(OC5C(C(=O)O)OC(OC6C(COS(=O)(=O)O)OC(OC7C(C(=O)O)OC(Oc8ccc([N+](=O)[O-])cc8)C(O)C7O)C(NS(=O)(=O)O)C6O)C(OS(=O)(=O)O)C5O)C(NS(=O)(=O)O)C4O)C(OS(=O)(=O)O)C3O)C(NS(=O)(=O)O)C2OS(=O)(=O)O)C(O)C(O)C1OC1OC(COS(=O)(=O)O)C(O)C(O)C1NS(=O)(=O)O` (stereo not shown) [Compound 2]: in data set [1], the “retention in the liver” value is reported as “very low level of retention in the liver”. Besides, in data set [2], the “endocytosis mediated” value is given as “very low internalization”.
On the same counts, the results for `O=C(O)C1OC(OC2C(COS(=O)(=O)O)OC(OC3C(C(=O)O)OC(OC4C(COS(=O)(=O)O)OC(OC5C(C(=O)O)OC(OC6C(COS(=O)(=O)O)OC(OC7C(C(=O)O)OC(OC8C(COS(=O)(=O)O)OC(OC9C(C(=O)O)OC(Oc%10ccc([N+](=O)[O-])cc%10)C(O)C9O)C(NS(=O)(=O)O)C8O)C(OS(=O)(=O)O)C7O)C(NS(=O)(=O)O)C6O)C(OS(=O)(=O)O)C5O)C(NS(=O)(=O)O)C4O)C(OS(=O)(=O)O)C3O)C(NS(=O)(=O)O)C2OS(=O)(=O)O)C(O)C(O)C1OC1OC(COS(=O)(=O)O)C(O)C(O)C1NS(=O)(=O)O` (stereo not shown) [Compound 3] are “retained in the liver; also recorded: internalized in mice liver” and “significant endocytosis”.
For the compound `CC(=O)NC1C(OC2C(C(=O)O)OC(OC3C(COS(=O)(=O)O)OC(OC4C(C(=O)O)OC(OC5C(COS(=O)(=O)O)OC(OC6C(C(=O)O)OC(OC7C(COS(=O)(=O)O)OC(OC8C(C(=O)O)OC(OC9C(COS(=O)(=O)O)OC(OC%10C(C(=O)O)OC(OC%11C(COS(=O)(=O)O)OC(OC%12C(C(=O)O)OC(Oc%13ccc([N+](=O)[O-])cc%13)C(O)C%12O)C(NS(=O)(=O)O)C%11O)C(OS(=O)(=O)O)C%10O)C(NS(=O)(=O)O)C9O)C(OS(=O)(=O)O)C8O)C(NS(=O)(=O)O)C7O)C(OS(=O)(=O)O)C6O)C(NS(=O)(=O)O)C5O)C(OS(=O)(=O)O)C4O)C(NS(=O)(=O)O)C3OS(=O)(=O)O)C(O)C2O)OC(COS(=O)(=O)O)C(O)C1O` (stereo not shown) [Compound 4], the “retention in the liver” value in data set [1] is listed as “retained in the liver; also recorded: internalized in mice liver”. The “endocytosis mediated” value in data set [2] is given as “significant endocytosis”.
The like results for `CC(=O)NC1C(OC2C(C(=O)O)OC(OC3C(COS(=O)(=O)O)OC(OC4C(C(=O)O)OC(OC5C(COS(=O)(=O)O)OC(OC6C(C(=O)O)OC(OC7C(COS(=O)(=O)O)OC(OC8C(C(=O)O)OC(OC9C(COS(=O)(=O)O)OC(OC%10C(C(=O)O)OC(OC%11C(COS(=O)(=O)O)OC(OC%12C(C(=O)O)OC(Oc%13ccc([N+](=O)[O-])cc%13)C(O)C%12O)C(NS(=O)(=O)O)C%11O)C(OS(=O)(=O)O)C%10O)C(NS(=O)(=O)O)C9OS(=O)(=O)O)C(OS(=O)(=O)O)C8O)C(NS(=O)(=O)O)C7O)C(OS(=O)(=O)O)C6O)C(NS(=O)(=O)O)C5O)C(OS(=O)(=O)O)C4O)C(NS(=O)(=O)O)C3OS(=O)(=O)O)C(O)C2O)OC(COS(=O)(=O)O)C(O)C1O` (stereo not shown) [Compound 5] were, in that order, “retained in the liver; also recorded: internalized in mice liver” and “significant endocytosis”.
